In US12728136B2, “Liposomal nano formulation of combinational antibiotics and the uses thereof” (Purdue Research Foundation, priority 2018, dated 2026):

Tests used:
Type in all cases: cell-based, Pseudomonas aeruginosa
P. aeruginosa H131300444 [1] = assay: Minimum inhibitory concentration, broth microdilution; conditions: clinical isolate P. aeruginosa H131300444
Experimental: (§1) Briefly, fresh cultures of each strain were diluted in Cation-Adjusted Mueller-Hinton Broth (CAMHB; Mg^2+ at 12.2 mg/L and Ca^2+ at 23.0 mg/L [Oxoid, Hampshire, England]) giving an approximately inoculum of 10^^6 colony-forming units (CFU/ml) as the inocula. Drug concentrations of 0, 0.125, 0.25, 0.5, 1, 2, and 4 mg/L were derived from diluting the stock drug solution (5.12 mg/mL) with CAMHB.

P. aeruginosa H133880624 [2] = assay: as above; conditions: clinical isolate P. aeruginosa H133880624
Experimental: as §1

P. aeruginosa H131300444 [3] = assay: In vitro static time-kill experiment; conditions: colistin 2 mg/L and/or ciprofloxacin 8 mg/L; 0-24 hrs; FIG. 13A
Experimental: (§2) All samples were dissolved in CAMHB and all experiments were performed with an initial inoculum of ~10^6 CFU/mL in 20 mL of CAMHB in 50 mL pyrogen-free and sterile polypropylene tubes. […] Serial samples (50 μL) were obtained at 0, 1, 3, 6 and 24 hrs for viable cell counting and determination of drug concentrations. All samples were centrifuged at 12000×g for 10 min and cell pellets were resuspended in 0.9% saline and diluted accordingly for viable counting on nutrient agar plates. The bacteria were incubated at 37° C. for 24 hrs and the limit of detection was 20 CFU/mL (equivalent to one colony per plate). The colonies were counted with a ProtoCOL colony counter (Synbiosis, Cambridge, United Kingdom).

P. aeruginosa H133880624 [4] = assay: In vitro static time-kill experiment; conditions: colistin 2 mg/L and/or ciprofloxacin 8 mg/L; 0-24 hrs; FIG. 13B
Experimental: as §2

Colistin sulfate
MIC (P. aeruginosa H131300444 [1]): 128 µg/mL | MIC (P. aeruginosa H133880624 [2]): 128 µg/mL | time-kill profile (P. aeruginosa H131300444 [3]): no antibacterial effect | time-kill profile (P. aeruginosa H133880624 [4]): no antibacterial effect
